These results are taken from article PMC11009625, “Antibiotic class with potent in vivo activity targeting lipopolysaccharide synthesis in Gram-negative bacteria” (Proceedings of the National Academy of Sciences of the …, 2024).

A word on the IC50: it is the midpoint of a concentration-inhibition curve. One may read the thermodynamic solubility as the concentration in solution at equilibrium with solid.

Structures are written as SMILES. ≈ marks a conversion by molar mass, not a printed value.

In series [1] the target is T1, E. coli LpxH (Escherichia coli, UniProt P43341).
T1 construct: His6 (C); made in house; host or cells: E. coli BL21-AI (pET-26b(+), synthetic gene from GenScript)
Description: MBP-AaLpxE-coupled LpxH activity assay (malachite green). In kind it is biochemical. The note with it: read-out: E. coli LpxH enzyme inhibition IC50. As for the experimental part: E. coli-optimized EcLpxH and KpLpxH sequences, cloned into a pET-26b(+) vector (Novagene) using NdeI/XhoI restriction sites, were ordered from GenScript Biotech (the Netherlands), giving constructs with a His6-tag at the C-terminal end, and bearing kanamycin resistance. Competent E. coli BL21-AI cells (Invitrogen) were transformed and grown at 37 °C in Luria broth containing 50 μg/mL kanamycin to an OD600 of 0.5 to 1.0, then induced for 2 to 3 h by adding IPTG and L-arabinose to final concentrations of 0.5 mM and of 2 mg/mL, respectively. Harvested cells were lysed in a One-Shot cell disrupter (Constant Systems Ltd., UK) in 20 mM Tris-HCl pH 8.0, 300 mM NaCl, 20 mM imidazole, 4 M urea, 5% (v/v) glycerol, 0.01 mg/mL RNase A and 0.02 mg/mL DNase, plus cOmplete, EDTA-free protease inhibitor cocktail (Roche). Proteins were purified using Ni-nitrilotriacetic acid agarose (Qiagen), HiTrap Heparin HP affinity chromatography (Cytiva), and HiLoad 16/60 Superdex 200 chromatography (Amersham Biosciences). Final samples were concentrated to 15 mg/mL protein and stored in aliquots in 20 mM Tris-HCl (pH 8.0) containing 300 mM NaCl and 2 mM DTT at −80 °C. Assays were performed essentially as described by ref. [26]. Additional assay details are available in SI Appendix.
Cloning, expression and purification of LpxHs. E. coli-optimized EcLpxH and KpLpxH sequences, cloned into a pET-26b(+) vector (Novagene) using NdeI/XhoI restriction sites, were ordered from GenScript Biotech (the Netherlands), giving constructs with a His6-tag at the C-terminal end, and bearing kanamycin resistance. The correctness of the sequences was verified by DNA sequencing. Competent E. coli BL21-AI cells (Invitrogen) were transformed with the resulting plasmids for protein production.
Cultures of 8 L of Luria broth containing 50 μg/mL kanamycin were grown at 37 °C to an OD600 of 0.5-1.0, then induced by adding IPTG to a final concentration of 0.5 mM and L-arabinose to a final concentration of 2 mg/ml. After 2-3 h of incubation at 37 °C, cells were harvested by centrifugation, and the pellet was resuspended in lysis buffer (20 mM Tris-HCl pH 8.0, 300 mM NaCl, 20 mM imidazole, 4 M urea, 5% (v/v) glycerol, 0.01 mg/mL RNase A and 0.02 mg/mL DNase, plus one tablet of cOmplete, EDTA-free cocktail protease inhibitor cocktail (Roche)).
Cells were lysed using a One-Shot cell disrupter (Constant Systems Ltd., UK). The lysate was spun down and the soluble fraction containing LpxH was incubated at 4 °C overnight with 1.5 mL pre-equilibrated Ni-nitrilotriacetic acid agarose (Qiagen) slurry using the same buffer. The column was then washed in steps of 30 column volumes with lysis buffer (without RNase A, DNase and protease inhibitor) containing 3, 2, 1, 0.5 and 0 M of urea. The protein was then eluted with eight column volumes of 500 mM imidazole in the same buffer. Fractions containing the desired protein as judged by SDS gels were pooled and purified on a HiTrap Heparin HP affinity column (Cytiva) (loading buffer 20 mM Tris-HCl, pH 8.0 and 5% glycerol, 2 mM DTT; elution buffer 20 mM Tris-HCl, pH 8.0 and 5% glycerol, 1 M NaCl, 2 mM DTT) and further applied to a HiLoad 16/60 Superdex 200 preparative grade column (Amersham Biosciences) pre-equilibrated with 20 mM Tris-HCl, pH 8.0, 300 mM NaCl, 5% glycerol, 2 mM
DTT. […]
for EcLpxH2 and KpLpxH, respectively, calculated using the ProtParam tool(1) were analyzed by SDS PAGE and stored in 20 mM Tris-HCl (pH 8.0) containing 300 mM NaCl and 2 mM DTT at -80 […]

Series [2] in a line: Thermodynamic solubility. The note with it: 37 °C, aqueous buffer, thermodynamic from solid; 100 mM KPO4-buffer, pH 7.4. In kind it is physicochemical. Here is the method:
Thermodynamic solubility was assessed by dissolving 2 to 3 mg of test compound to equilibrium in 100 mM KPO4-buffer, pH 7.4. The metabolic stability assay was performed in the presence of human and mouse liver microsomes by measurement of test compounds disappearance over time (60 min). The plasma protein binding assay, including stability estimation, was performed using the RED devices (Thermo Fisher Scientific) in the presence of human and mouse plasma. All samples from the in vitro ADME studies were quantified by liquid chromatography-triple quadrupole mass spectrometry (LC–MS/MS). The assays were performed as previously described ([36]) and the details are available in SI Appendix. Cytotoxicity was assessed by incubation of test compounds in the presence of HepG2 cells for 72 h as previously described ([37]). […]
The plate is then sealed, centrifuged and the supernatant is analysed by liquid
chromatography coupled to triple quadrupole mass spectrometry (LC-MS/MS). […]
Thermodynamic solubility. Thermodynamic solubility assay utilized solid form of a test
compound. Solid test compound (~2-3 mg) was weighed in a glass HPLC vial and 100 mM KPO4-
buffer, pH 7.4 was added to give a theoretical max concentration if everything is dissolved of ~5-
6 mg/ml. The vial was incubated at 900 rpm, 37 °C in a rotational shaker for 24h. After the
incubation an aliquot (200 µl) was transferred to a glass insert and centrifuged at 10 000xg, 37 °C
for 20 min to separate any solid material from the solution. The supernatant was transferred to
a new HPLC vial and analysed by liquid chromatography coupled to triple quadrupole mass
Liquid chromatography coupled to triple quadrupole mass spectrometry (LC-MS/MS). The test
compounds were optimized on a Waters Acquity UPLC XEVO TQ-S micro system (Waters Corp.)
operating in multiple reaction monitoring (MRM) mode with positive or negative electrospray
ionization. Compounds were optimized by using the QuanOptimize software (Waters Corp.).
For chromatographic separation, a C18 BEH 1.7 µm column was used, with a general gradient of
1% to 90% of mobile phase B over a total running time of 2 min. Mobile phase A consisted of
5% acetonitrile and 0.1% formic acid in purified water, and mobile phase B of 0.1% formic acid
in 100% acetonitrile. The flow rate was set to 0.5 ml/min and 5 µL of the sample was injected.

T1 sequence (P43341 whole entry): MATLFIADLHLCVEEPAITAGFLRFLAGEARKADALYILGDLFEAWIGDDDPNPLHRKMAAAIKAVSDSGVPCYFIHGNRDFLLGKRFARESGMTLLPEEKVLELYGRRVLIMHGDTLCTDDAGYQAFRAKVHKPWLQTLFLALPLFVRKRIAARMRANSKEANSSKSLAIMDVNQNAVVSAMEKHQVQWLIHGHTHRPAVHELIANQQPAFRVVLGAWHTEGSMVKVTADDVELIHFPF

Consider `CC(=O)N1CCc2cc(S(=O)(=O)N3CCN(c4cccc(C(F)(F)F)c4)CC3)ccc21` [AZ1, reference compound], for which the concentration for half-maximal inhibition (IC50) in series [1] is 520 nM.
In turn, `CN(c1ccc(CNCCN)cc1C(=O)Nc1ccc(S(=O)(=O)N2CCN(c3cc(Cl)cc(Cl)c3)CC2)cc1)S(C)(=O)=O` [EBL-3025] came in with a solubility (thermodynamic) at 24 h in series [2] of 4 µM (≈ 2.68 µg/mL). In series [1], the 50% inhibitory concentration (IC50) was 3.4 nM.
Taken in the same sequence, the figures for `Cc1cc(C#N)nc(N2CCN(S(=O)(=O)c3ccc(NC(=O)c4ccccc4N(C)S(C)(=O)=O)cc3)CC2)n1` [EBL-3339] were 1.2 µM (≈ 0.684 µg/mL) and 1.5 nM.
On to `Cc1cc(C#N)nc(N2CCN(S(=O)(=O)c3ccc(NC(=O)c4cc(CNCCCN)ccc4N(C)S(C)(=O)=O)cc3)CC2)n1.Cl.Cl` [EBL-3599], for which the thermodynamic solubility at 24 h in series [2] was determined as 1530 µM.
`Cc1cc(C#N)nc(N2CCN(S(=O)(=O)c3ccc(NC(=O)c4cc(CN5CC(CN)C5)ccc4N(C)S(C)(=O)=O)cc3)CC2)n1` [EBL-3647] came in with a solubility (thermodynamic) at 24 h in series [2] of 1090 µM (≈ 728 µg/mL).
For the compound `CN(c1ccccc1C(=O)Nc1ccc(S(=O)(=O)N2CCCCC2)cc1)S(C)(=O)=O` [JEDI-852], in series [1], the half-maximal inhibitory concentration (IC50) came out at 1300 nM.
Compound `CN(c1ccccc1C(=O)Nc1ccc(S(=O)(=O)N2CCN(c3cccc(C(F)(F)F)c3)CC2)cc1)S(C)(=O)=O` [JEDI-1444] registered a thermodynamic solubility at 24 h in series [2] of 0.21 µM (≈ 0.125 µg/mL). The IC50 in series [1] worked out at 2.6 nM.
